Reference: patent US20250230193A1, “CYCLIC COMPOUND HAVING SELECTIVE KRAS INHIBITORY EFFECT ON HRAS AND NRAS” (CHUGAI SEIYAKU KABUSHIKI KAISHA, priority 2022, published 2025)
Where a SMILES comes first, the peptide text is derived from it. Bridges are numbered along the chain shown (N, C = ends). [ ]: non-standard residue; d: D form. The star is where a group is joined. hPhe(3-Cl-4-CF3) = N[C@@H](CCc1ccc(C(F)(F)F)c(Cl)c1)C(=O)O; NPrPhe(4-CF3) = CCCN[C@@H](Cc1ccc(C(F)(F)F)cc1)C(=O)O; NMeGly(cPent) = CN[C@H](C(=O)O)C1CCCC1; Pro(4,4-F2) = O=C(O)[C@@H]1CC(F)(F)CN1; Hyp = O=C(O)[C@@H]1C[C@@H](O)CN1; NMeD = CN[C@@H](CC(=O)O)C(=O)O; NMeL = CN[C@@H](CC(C)C)C(=O)O; Morpholide = C1CN(*)CCO1; Ac5c = NC1(C(=O)O)CCCC1; Aze = O=C(O)[C@@H]1CCN1; Ac4c = NC1(C(=O)O)CCC1; NPrGly = CCCNCC(=O)O; Sar = CNCC(=O)O

Experiments:
[1] = molecular target: GDP-bound NRAS wild-type protein (Homo sapiens, UniProt P01111); experiment: Binding to NRAS by surface plasmon resonance (SPR), Single Cycle Kinetics; details: KD ratio NRAS/KRAS, SPR
Chain of GDP-bound NRAS wild-type protein (P01111 whole entry): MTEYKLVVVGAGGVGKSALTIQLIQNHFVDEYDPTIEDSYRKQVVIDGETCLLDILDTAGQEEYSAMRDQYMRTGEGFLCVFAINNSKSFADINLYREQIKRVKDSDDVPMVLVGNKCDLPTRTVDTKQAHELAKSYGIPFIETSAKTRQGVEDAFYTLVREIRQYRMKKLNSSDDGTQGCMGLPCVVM

[2] = molecular target: GDP-bound HRAS wild-type protein (Homo sapiens, UniProt P01112); experiment: Binding to HRAS by surface plasmon resonance (SPR), Single Cycle Kinetics; details: KD ratio HRAS/KRAS, SPR
Chain of GDP-bound HRAS wild-type protein (P01112 whole entry): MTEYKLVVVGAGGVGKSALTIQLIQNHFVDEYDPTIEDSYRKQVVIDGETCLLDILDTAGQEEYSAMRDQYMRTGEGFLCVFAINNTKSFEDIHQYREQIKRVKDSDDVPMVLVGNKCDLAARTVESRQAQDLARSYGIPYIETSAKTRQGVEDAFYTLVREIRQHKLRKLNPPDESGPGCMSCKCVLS

| Compound | NRAS/KRAS (ratio of KD for GDP-bound NRAS wild-type to KD for KRAS) [1] | HRAS/KRAS (ratio of KD for GDP-bound HRAS wild-type to KD for KRAS) [2] |
| --- | --- | --- |
| CCCN1C(=O)CN(C)C(=O)[C@@H]2CCN2C(=O)[C@H]([C@@H](C)CC)NC(=O)[C@H](CC(C)C)N(C)C(=O)C[C@@H](C(=O)N2CCOCC2)N(C)C(=O)[C@H](C2CCCC2)N(C)C(=O)C2(CCCC2)NC(=O)CN(C)C(=O)[C@H](CCc2ccc(C(F)(F)F)c(Cl)c2)NC(=O)CN(C)C(=O)[C@@H]1Cc1ccc(C(F)(F)F)cc1 [PP0314] ([NMeL]I[Aze][Sar][NPrPhe(4-CF3)][Sar][hPhe(3-Cl-4-CF3)][Sar][Ac5c][NMeGly(cPent)][NMeD]-Morpholide; lactam N-11) | B (a compound having 3 or more and less than 10 is denoted as B) | C (A compound having a KD ratio of 0.1 or more and less than 3 is denoted as C) |
| CCCN1CC(=O)NC2(CCCC2)C(=O)N(C)[C@@H](C2CCCC2)C(=O)N(C)[C@H](C(=O)N2CCOCC2)CC(=O)N(C)[C@@H](CC(C)C)C(=O)N[C@@H]([C@@H](C)CC)C(=O)N2CC[C@H]2C(=O)N(C)CC(=O)N(CCC)[C@@H](Cc2ccc(C(F)(F)F)cc2)C(=O)N(C)CC(=O)N[C@@H](CCc2ccc(C(F)(F)F)c(Cl)c2)C1=O [PP0315] ([NMeL]I[Aze][Sar][NPrPhe(4-CF3)][Sar][hPhe(3-Cl-4-CF3)][NPrGly][Ac5c][NMeGly(cPent)][NMeD]-Morpholide; lactam N-11) | B (a compound having 3 or more and less than 10 is denoted as B) | B (a compound having 3 or more and less than 10 is denoted as B) |
| CC[C@H](C)[C@@H]1NC(=O)[C@H](CC(C)C)N(C)C(=O)C[C@@H](C(=O)N2CCOCC2)N(C)C(=O)[C@H](C2CCCC2)N(C)C(=O)C2(CCCC2)NC(=O)[C@@H]2CCCN2C(=O)[C@H](CCc2ccc(C(F)(F)F)c(Cl)c2)NC(=O)CN(C)C(=O)[C@H](Cc2ccc(C)cc2)N2CCCC[C@@H](C2=O)N(C)C(=O)CN(C)C1=O [PP0316] | C (A compound having a KD ratio of 0.1 or more and less than 3 is denoted as C) | B (a compound having 3 or more and less than 10 is denoted as B) |
| CC[C@H](C)[C@@H]1NC(=O)[C@H](CC(C)C)N(C)C(=O)C[C@@H](C(=O)N2CCOCC2)N(C)C(=O)[C@H](C2CCCC2)N(C)C(=O)C2(CCCC2)NC(=O)[C@@H]2CCCN2C(=O)[C@H](CCc2ccc(C(F)(F)F)c(Cl)c2)NC(=O)CN(C)C(=O)[C@H](Cc2ccc(C)cc2)N2CCCCC[C@@H](C2=O)N(C)C(=O)CN(C)C1=O [PP0317] | B (a compound having 3 or more and less than 10 is denoted as B) | B (a compound having 3 or more and less than 10 is denoted as B) |
| CC[C@H](C)[C@@H]1NC(=O)[C@H](CC(C)C)N(C)C(=O)C[C@@H](C(=O)N2CCOCC2)N(C)C(=O)[C@H](C2CCCC2)N(C)C(=O)C2(CCCC2)NC(=O)[C@@H]2CCCN2C(=O)[C@H](CCc2ccc(C(F)(F)F)c(Cl)c2)NC(=O)CN(C)C(=O)[C@H](Cc2ccc(C(F)(F)F)cc2)N2CCCC[C@@H](C2=O)N(C)C(=O)CN(C)C1=O [PP0318] | B (a compound having 3 or more and less than 10 is denoted as B) | B (a compound having 3 or more and less than 10 is denoted as B) |
| CCCN1C(=O)CN(C)C(=O)CN(C)C(=O)[C@H]([C@@H](C)CC)NC(=O)[C@H](CC(C)C)N(C)C(=O)C[C@@H](C(=O)N2CCOCC2)NC(=O)[C@H](C2CCCC2)N(C)C(=O)C2(CCC2)NC(=O)[C@@H]2CCCN2C(=O)[C@H](CCc2ccc(C(F)(F)F)c(Cl)c2)NC(=O)CN(C)C(=O)[C@@H]1Cc1ccc(C(F)(F)F)cc1 [PP0320] ([NMeL]I[Sar][Sar][NPrPhe(4-CF3)][Sar][hPhe(3-Cl-4-CF3)]P[Ac4c][NMeGly(cPent)]D-Morpholide; lactam N-11) | B (a compound having 3 or more and less than 10 is denoted as B) | B (a compound having 3 or more and less than 10 is denoted as B) |
| CCCN1C(=O)CN(C)C(=O)CN(C)C(=O)[C@H]([C@@H](C)CC)NC(=O)[C@H](CC(C)C)N(C)C(=O)C[C@@H](C(=O)N2CCOCC2)NC(=O)[C@H](C2CCCC2)N(C)C(=O)C2(CCCC2)NC(=O)[C@@H]2CC(F)(F)CN2C(=O)[C@H](CCc2ccc(C(F)(F)F)c(Cl)c2)NC(=O)CN(C)C(=O)[C@@H]1Cc1ccc(C(F)(F)F)cc1 [PP0321] ([NMeL]I[Sar][Sar][NPrPhe(4-CF3)][Sar][hPhe(3-Cl-4-CF3)][Pro(4,4-F2)][Ac5c][NMeGly(cPent)]D-Morpholide; lactam N-11) | B (a compound having 3 or more and less than 10 is denoted as B) | B (a compound having 3 or more and less than 10 is denoted as B) |
| CCCN1C(=O)CN(C)C(=O)CN(C)C(=O)[C@H]([C@@H](C)CC)NC(=O)[C@H](CC(C)C)N(C)C(=O)C[C@@H](C(=O)N2CCOCC2)NC(=O)[C@H](C2CCCC2)N(C)C(=O)C2(CCC2)NC(=O)[C@@H]2CC(F)(F)CN2C(=O)[C@H](CCc2ccc(C(F)(F)F)c(Cl)c2)NC(=O)CN(C)C(=O)[C@@H]1Cc1ccc(C(F)(F)F)cc1 [PP0322] ([NMeL]I[Sar][Sar][NPrPhe(4-CF3)][Sar][hPhe(3-Cl-4-CF3)][Pro(4,4-F2)][Ac4c][NMeGly(cPent)]D-Morpholide; lactam N-11) | B (a compound having 3 or more and less than 10 is denoted as B) | C (A compound having a KD ratio of 0.1 or more and less than 3 is denoted as C) |
| CCCN1C(=O)CN(C)C(=O)CN(C)C(=O)[C@H]([C@@H](C)CC)NC(=O)[C@H](CC(C)C)N(C)C(=O)C[C@@H](C(=O)N2CCOCC2)NC(=O)[C@H](C2CCCC2)N(C)C(=O)C2(CCCC2)NC(=O)[C@@H]2C[C@@H](OCC)CN2C(=O)[C@H](CCc2ccc(C(F)(F)F)c(Cl)c2)NC(=O)CN(C)C(=O)[C@@H]1Cc1ccc(C(F)(F)F)cc1 [PP0323] ([NMeL]I[Sar][Sar][NPrPhe(4-CF3)][Sar][hPhe(3-Cl-4-CF3)][Hyp](Et)[Ac5c][NMeGly(cPent)]D-Morpholide; lactam N-11) | B (a compound having 3 or more and less than 10 is denoted as B) | B (a compound having 3 or more and less than 10 is denoted as B) |
| CCCN1C(=O)CN(C)C(=O)CN(C)C(=O)[C@H]([C@@H](C)CC)NC(=O)[C@H](CC(C)C)N(C)C(=O)C[C@@H](C(=O)N2CCOCC2)NC(=O)[C@H](C2CCCC2)N(C)C(=O)C2(CCC2)NC(=O)[C@@H]2C[C@@H](OCC)CN2C(=O)[C@H](CCc2ccc(C(F)(F)F)c(Cl)c2)NC(=O)CN(C)C(=O)[C@@H]1Cc1ccc(C(F)(F)F)cc1 [PP0324] ([NMeL]I[Sar][Sar][NPrPhe(4-CF3)][Sar][hPhe(3-Cl-4-CF3)][Hyp](Et)[Ac4c][NMeGly(cPent)]D-Morpholide; lactam N-11) | B (a compound having 3 or more and less than 10 is denoted as B) | B (a compound having 3 or more and less than 10 is denoted as B) |
| CCCN1C(=O)CN(C)C(=O)CNC(=O)[C@H]([C@@H](C)CC)NC(=O)[C@H](CC(C)C)N(C)C(=O)C[C@@H](C(=O)N2CCOCC2)NC(=O)[C@H](C2CCCC2)N(C)C(=O)C2(CCCC2)NC(=O)[C@@H]2CCCN2C(=O)[C@H](CCc2ccc(C(F)(F)F)c(Cl)c2)NC(=O)CN(C)C(=O)[C@@H]1Cc1ccc(C(F)(F)F)cc1 [PP0325] ([NMeL]IG[Sar][NPrPhe(4-CF3)][Sar][hPhe(3-Cl-4-CF3)]P[Ac5c][NMeGly(cPent)]D-Morpholide; lactam N-11) | B (a compound having 3 or more and less than 10 is denoted as B) | B (a compound having 3 or more and less than 10 is denoted as B) |
| CCCN1C(=O)CN(C)C(=O)CNC(=O)[C@H]([C@@H](C)CC)NC(=O)[C@H](CC(C)C)N(C)C(=O)C[C@@H](C(=O)N2CCOCC2)NC(=O)[C@H](C2CCCC2)N(C)C(=O)C2(CCC2)NC(=O)[C@@H]2CCCN2C(=O)[C@H](CCc2ccc(C(F)(F)F)c(Cl)c2)NC(=O)CN(C)C(=O)[C@@H]1Cc1ccc(C(F)(F)F)cc1 [PP0326] ([NMeL]IG[Sar][NPrPhe(4-CF3)][Sar][hPhe(3-Cl-4-CF3)]P[Ac4c][NMeGly(cPent)]D-Morpholide; lactam N-11) | B (a compound having 3 or more and less than 10 is denoted as B) | B (a compound having 3 or more and less than 10 is denoted as B) |
| CCCN1C(=O)CN(C)C(=O)CNC(=O)[C@H]([C@@H](C)CC)NC(=O)[C@H](CC(C)C)N(C)C(=O)C[C@@H](C(=O)N2CCOCC2)NC(=O)[C@H](C2CCCC2)N(C)C(=O)C2(CCCC2)NC(=O)[C@@H]2CC(F)(F)CN2C(=O)[C@H](CCc2ccc(C(F)(F)F)c(Cl)c2)NC(=O)CN(C)C(=O)[C@@H]1Cc1ccc(C(F)(F)F)cc1 [PP0327] ([NMeL]IG[Sar][NPrPhe(4-CF3)][Sar][hPhe(3-Cl-4-CF3)][Pro(4,4-F2)][Ac5c][NMeGly(cPent)]D-Morpholide; lactam N-11) | B (a compound having 3 or more and less than 10 is denoted as B) | B (a compound having 3 or more and less than 10 is denoted as B) |
